Laboratory results taken from PubChem BioAssay AID330 (DTP/NCI, 2004).
Several values for one entry are separate records, joined by “and”; a condition that tells them apart may be missing. Equal values may be shown once. Toxic doses and inconclusive results are not listed.

System: P388 leukemia ip, CD2F1 mice, survival T/C
Test: NCI In Vivo Anticancer Drug Screen. Data for tumor model P388 Leukemia (intraperitoneal) in CD2F1 (CDF1) mice
Conditions: endpoint: median survival time, higher = longer survival
Outline: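 Mice carrying the transplanted tumor received test compound or vehicle. Survival was recorded in each group, and the value is the treated-group measurement divided by that of the vehicle-treated control group.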

[1] = dose: 12.5 mg/kg/injection, schedule: Q01DX009 (ip), vehicle: saline with Tween-80
[2] = dose: 25.0 mg/kg/injection, schedule: Q01DX009 (ip), vehicle: saline with Tween-80
[3] = dose: 50.0 mg/kg/injection, schedule: Q01DX009 (ip), vehicle: saline with Tween-80
[4] = dose: 100.0 mg/kg/injection, schedule: Q01DX009 (ip), vehicle: saline with Tween-80
[5] = dose: 200.0 mg/kg/injection, schedule: Q01DX009 (ip), vehicle: saline with Tween-80
[6] = dose: 60.0 mg/kg/injection, schedule: Q01DX005 (ip), vehicle: saline with Tween-80
[7] = dose: 120.0 mg/kg/injection, schedule: Q01DX005 (ip), vehicle: saline with Tween-80
[8] = dose: 50.0 mg/kg/injection, schedule: Q01DX005 (ip), vehicle: saline with Tween-80

SMILES: CC(C)(C)c1ccc(OP(=S)(NN)Oc2ccc(C(C)(C)C)cc2)cc1
- T/C (dose: 50.0 mg/kg/injection, schedule: Q01DX009 (ip), vehicle: Klucel (hydroxypropylcellulose) (HPC)): 98 % of control
- T/C (dose: 100.0 mg/kg/injection, schedule: Q01DX009 (ip), vehicle: Klucel (hydroxypropylcellulose) (HPC)): 102 % of control
- T/C (dose: 200.0 mg/kg/injection, schedule: Q01DX009 (ip), vehicle: Klucel (hydroxypropylcellulose) (HPC)): 94 % of control

SMILES: CC1=N/C(=C\c2ccc(Br)cc2)C(=O)O1
- T/C (dose: 50.0 mg/kg/injection, schedule: Q01DX005 (ip), vehicle: Klucel (hydroxypropylcellulose) (HPC)): 109 % of control
- T/C (dose: 100.0 mg/kg/injection, schedule: Q01DX005 (ip), vehicle: Klucel (hydroxypropylcellulose) (HPC)): 98 % of control
- T/C (dose: 200.0 mg/kg/injection, schedule: Q01DX005 (ip), vehicle: Klucel (hydroxypropylcellulose) (HPC)): 112 % of control

SMILES: CCC12C=CCN3CCC4(c5cc(C6c7[nH]c8ccccc8c7CCN7CCCCC67)c(OC)cc5N(C)C4C(O)(C(=O)OC)C1OC(C)=O)C32 (centres undefined)
- T/C (dose: 0.06 mg/kg/injection, schedule: Q01DX009 (ip), vehicle: Klucel (hydroxypropylcellulose) (HPC)): 115 % of control
- T/C (dose: 0.13 mg/kg/injection, schedule: Q01DX009 (ip), vehicle: Klucel (hydroxypropylcellulose) (HPC)): 122 % of control
- T/C (dose: 0.13 mg/kg/injection, schedule: Q04DX003 (ip), vehicle: water): 95 % of control
- T/C (dose: 0.25 mg/kg/injection, schedule: Q01DX009 (ip), vehicle: Klucel (hydroxypropylcellulose) (HPC)): 123 % of control
- T/C (dose: 0.25 mg/kg/injection, schedule: Q04DX003 (ip), vehicle: water): 112 % of control
- T/C (dose: 0.5 mg/kg/injection, schedule: Q04DX003 (ip), vehicle: water): 113 % of control
- T/C (dose: 0.67 mg/kg/injection, schedule: Q01DX009 (ip), vehicle: Klucel (hydroxypropylcellulose) (HPC)): 103 % of control
- T/C (dose: 1.0 mg/kg/injection, schedule: Q04DX003 (ip), vehicle: water): 103 % of control
- T/C (dose: 1.5 mg/kg/injection, schedule: Q01DX009 (ip), vehicle: Klucel (hydroxypropylcellulose) (HPC)): 105 % of control
- T/C (dose: 2.0 mg/kg/injection, schedule: Q04DX003 (ip), vehicle: water): 91 % of control

SMILES: CCCn1c2nc(=O)[nH]c(=O)c-2[n+]([O-])c2ccccc21
- T/C (dose: 6.25 mg/kg/injection, schedule: Q01DX001 (ip), vehicle: saline with Tween-80): 97 % of control
- T/C (dose: 12.5 mg/kg/injection, schedule: Q01DX001 (ip), vehicle: saline with Tween-80): 98 % of control

SMILES: O=c1oc2ccccc2c(O)c1C1=N/C(=N/N=C/c2ccc(Cl)cc2)SC1
- T/C (dose: 15.0 mg/kg/injection, schedule: Q01DX005 (ip), vehicle: Klucel (hydroxypropylcellulose) (HPC)): 98 % of control
- T/C (dose: 30.0 mg/kg/injection, schedule: Q01DX005 (ip), vehicle: Klucel (hydroxypropylcellulose) (HPC)): 100 % of control
- T/C (dose: 60.0 mg/kg/injection, schedule: Q01DX005 (ip), vehicle: Klucel (hydroxypropylcellulose) (HPC)): 101 % of control and 87 % of control
- T/C (dose: 60.0 mg/kg/injection, schedule: Q02DX002 (ip), vehicle: Klucel (hydroxypropylcellulose) (HPC)): 97 % of control
- T/C (dose: 120.0 mg/kg/injection, schedule: Q02DX002 (ip), vehicle: Klucel (hydroxypropylcellulose) (HPC)): 89 % of control
- T/C (dose: 240.0 mg/kg/injection, schedule: Q02DX002 (ip), vehicle: Klucel (hydroxypropylcellulose) (HPC)): 93 % of control

SMILES: C[C@]12CC[C@@H]3c4ccc(OC(=O)Cc5ccc(N(CCCl)CCCl)cc5)cc4CC[C@H]3[C@@H]1CC[C@@H]2OC(=O)Cc1ccc(N(CCCl)CCCl)cc1
- T/C (dose: 100.0 mg/kg/injection, schedule: Q04DX003 (ip), vehicle: saline with Tween-80): 100 % of control
- T/C (dose: 200.0 mg/kg/injection, schedule: Q04DX003 (ip), vehicle: saline with Tween-80): 120 % of control
- T/C (dose: 264.0 mg/kg/injection, schedule: Q04DX003 (ip), vehicle: saline with Tween-80): 109 % of control
- T/C (dose: 400.0 mg/kg/injection, schedule: Q04DX003 (ip), vehicle: saline with Tween-80): 113 % of control
- T/C (dose: 600.0 mg/kg/injection, schedule: Q04DX003 (ip), vehicle: saline with Tween-80): 154 % of control

SMILES: C=C(CN(C)C)C(=O)c1ccccc1C
- T/C (dose: 0.78 mg/kg/injection, schedule: Q01DX005 (ip), vehicle: saline): 102 % of control
- T/C (dose: 1.56 mg/kg/injection, schedule: Q01DX005 (ip), vehicle: saline): 98 % of control
- T/C (dose: 3.12 mg/kg/injection, schedule: Q01DX005 (ip), vehicle: saline): 94 % of control
- T/C (dose: 6.25 mg/kg/injection, schedule: Q01DX005 (ip), vehicle: suspension in saline): 108 % of control

SMILES: O=[N+]([O-])c1nc(Br)n[nH]1
- T/C (dose: 100.0 mg/kg/injection, schedule: Q04DX002 (ip), vehicle: water): 107 % of control
- T/C (dose: 200.0 mg/kg/injection, schedule: Q04DX002 (ip), vehicle: water): 106 % of control

SMILES: COc1cc(/C=C/c2nnc3c4ccccc4cnn23)cc(OC)c1OC
- T/C [1]: 99 % of control
- T/C [2]: 100 % of control
- T/C [3]: 101 % of control and 91 % of control
- T/C [4]: 93 % of control
- T/C [5]: 94 % of control

SMILES: COc1ccc2cc3[n+](c(CC(=O)O)c2c1OC)CCc1cc2c(cc1-3)OCO2
- T/C (dose: 0.63 mg/kg/injection, schedule: Q01DX009 (ip), vehicle: water): 101 % of control
- T/C (dose: 1.25 mg/kg/injection, schedule: Q01DX009 (ip), vehicle: water): 88 % of control
- T/C (dose: 2.5 mg/kg/injection, schedule: Q01DX009 (ip), vehicle: water): 105 % of control
- T/C (dose: 5.0 mg/kg/injection, schedule: Q01DX009 (ip), vehicle: water): 117 % of control
- T/C (dose: 10.0 mg/kg/injection, schedule: Q01DX009 (ip), vehicle: water): 118 % of control

SMILES: O=C(CN1CCN(c2ccccc2)CC1)n1cnc2ccc([N+](=O)[O-])cc21
- T/C [6]: 96 % of control
- T/C [7]: 91 % of control

SMILES: CC(=O)ON(C(C)=O)c1ccc(C(=O)OC2(C)CC(C)(C)N=N2)cc1 (centres undefined)
- T/C [1]: 86 % of control
- T/C [4]: 87 % of control
- T/C [5]: 106 % of control

SMILES: Cc1ccc(SCC(=O)NCc2cccs2)cc1
- T/C [8]: 103 % of control
- T/C (dose: 100.0 mg/kg/injection, schedule: Q01DX005 (ip), vehicle: saline with Tween-80): 97 % of control
- T/C (dose: 200.0 mg/kg/injection, schedule: Q01DX005 (ip), vehicle: saline with Tween-80): 93 % of control

SMILES: Cc1cc(Cl)ccc1NC(=O)Oc1nc2ccccc2o1
- T/C [1]: 104 % of control and 96 % of control
- T/C [2]: 99 % of control and 101 % of control
- T/C [3]: 111 % of control and 96 % of control
- T/C [4]: 101 % of control and 112 % of control

SMILES: CC1=NN(C)C(=O)C1
- T/C (dose: 50.0 mg/kg/injection, schedule: Q04DX003 (ip), vehicle: saline): 102 % of control
- T/C (dose: 100.0 mg/kg/injection, schedule: Q04DX003 (ip), vehicle: saline): 101 % of control
- T/C (dose: 200.0 mg/kg/injection, schedule: Q04DX003 (ip), vehicle: saline): 104 % of control
- T/C (dose: 400.0 mg/kg/injection, schedule: Q04DX003 (ip), vehicle: saline): 111 % of control

SMILES: O=[N+]([O-])c1cc(NC(=S)SCc2ccc3c(c2)OCO3)ccc1Cl
- T/C (dose: 50.0 mg/kg/injection, schedule: Q01DX009 (ip), vehicle: suspension in saline): 110 % of control
- T/C (dose: 100.0 mg/kg/injection, schedule: Q01DX009 (ip), vehicle: suspension in saline): 114 % of control
- T/C (dose: 200.0 mg/kg/injection, schedule: Q01DX009 (ip), vehicle: suspension in saline): 87 % of control

SMILES: COc1ccc(S(=O)(=O)c2cnc(N3CCCCC3)nc2N)cc1
- T/C (dose: 100.0 mg/kg/injection, schedule: Q04DX002 (ip), vehicle: saline): 100 % of control
- T/C (dose: 200.0 mg/kg/injection, schedule: Q04DX002 (ip), vehicle: saline): 98 % of control
- T/C (dose: 400.0 mg/kg/injection, schedule: Q04DX002 (ip), vehicle: saline): 97 % of control

SMILES: O=C1NC(=O)C2C3CCC(C12)C1C2C(=O)NC(=O)C2C31 (centres undefined)
- T/C (dose: 12.5 mg/kg/injection, schedule: Q01DX005 (ip), vehicle: saline with Tween-80): 91 % of control
- T/C (dose: 25.0 mg/kg/injection, schedule: Q01DX005 (ip), vehicle: saline with Tween-80): 93 % of control
- T/C [8]: 101 % of control and 91 % of control

SMILES: C=CN1C(=O)N(C=C)C(C)(CC(C)C)C1=O (centres undefined)
- T/C [3]: 100 % of control
- T/C [4]: 100 % of control
- T/C [5]: 112 % of control

SMILES: OC1CC2CCCCC2CC1C1CCCCC1 (centres undefined)
- T/C (dose: 100.0 mg/kg/injection, schedule: Q01DX001 (ip), vehicle: Klucel (hydroxypropylcellulose) (HPC)): 90 % of control
- T/C (dose: 200.0 mg/kg/injection, schedule: Q01DX001 (ip), vehicle: Klucel (hydroxypropylcellulose) (HPC)): 91 % of control
- T/C (dose: 400.0 mg/kg/injection, schedule: Q01DX001 (ip), vehicle: Klucel (hydroxypropylcellulose) (HPC)): 94 % of control

SMILES: CCOC(=O)C1=C(C)Oc2cc3c(cc2C1c1cc(OC)c(OC)c(OC)c1)OCO3 (centres undefined)
- T/C [6]: 97 % of control
- T/C [7]: 98 % of control
- T/C (dose: 240.0 mg/kg/injection, schedule: Q01DX005 (ip), vehicle: saline with Tween-80): 94 % of control
